# Assay results as given in patent US8815882B2, “Pyrazole aminopyrimidine derivatives as LRRK2 modulators” (Genentech, Inc., priority 2010, dated 2014).
# Molecular target: T1, LRRK2 (Homo sapiens, UniProt Q5S007, G2019S)
# T1 construct: purchased Invitrogen PV4882 (lot 567054A)
# Assay: In Vitro LRRK2 Assay (LabChip 3000, fluorescently-labeled peptide substrate, ATP)
# Type: biochemical
# Conditions: read-out: LRRK2 Ki (KI), Table 7
# Method: This assay was used to determine a compound's potency in inhibiting activity of LRRK2 by determining, Kiapp, IC50, or percent inhibition values. In a polypropylene plate, LRRK2, fluorescently-labeled peptide substrate, ATP and test compound were incubated together. Using a LabChip 3000 (Caliper Life Sciences), after the reaction the substrate was separated by capillary electrophoresis into two populations: phosphorylated and unphosphorylated. The relative amounts of each were quantitated by fluorescence intensity. LRRK2 Ki was determined according to the equation: Y=V0*(1−(x+Ki*(1+S/Km)+Et)/(2*Et)−(((x+Ki*(1+S/Km)+Et)^2−(4*Et*x))^0.5)/(2*Et))). Ki values in Table 4 and elsewhere herein are shown in μM.
# Assay conditions and materials used were as follows:
# Compound Plate Preparation:
# For serial dilutions, 34.6 μl DMSO was added to columns 3-24.
# Total and Blank Preparation:
# In Complete Reaction Buffer, substrate was diluted to 4 μM. Equal volumes of Complete Reaction Buffer and 4 μM substrate were combined to obtain the blank. Equal volumes of Complete Reaction Buffer and 4 μM substrate were combined and to the combined solution was added 2× final LRRK2 concentration.
# To a 50 μl polypropylene plate, 5 μl/well buffer/substrate was added by hand to Blank wells. A Biomek FX was used to start the kinase reaction (“PLK SAR 23 ATP”). The following were added to the appropriate wells:
# 5 μl/well compound/ATP in Assay Plate;
# 5 μl/well kinase/substrate in Assay Plate;
# The plate was incubated for 2 hours in the dark. Biomek FX was used to stop the kinase reaction (“PLK Stop”), and 10 μl/well Stop solution was added to the Assay Plate. Results were read on the LabChip 3000.
# The LabChip 3000 was run using the job “LRRK2 IC50” with the following job settings: […]
# T1 sequence (Q5S007 whole entry G2019S): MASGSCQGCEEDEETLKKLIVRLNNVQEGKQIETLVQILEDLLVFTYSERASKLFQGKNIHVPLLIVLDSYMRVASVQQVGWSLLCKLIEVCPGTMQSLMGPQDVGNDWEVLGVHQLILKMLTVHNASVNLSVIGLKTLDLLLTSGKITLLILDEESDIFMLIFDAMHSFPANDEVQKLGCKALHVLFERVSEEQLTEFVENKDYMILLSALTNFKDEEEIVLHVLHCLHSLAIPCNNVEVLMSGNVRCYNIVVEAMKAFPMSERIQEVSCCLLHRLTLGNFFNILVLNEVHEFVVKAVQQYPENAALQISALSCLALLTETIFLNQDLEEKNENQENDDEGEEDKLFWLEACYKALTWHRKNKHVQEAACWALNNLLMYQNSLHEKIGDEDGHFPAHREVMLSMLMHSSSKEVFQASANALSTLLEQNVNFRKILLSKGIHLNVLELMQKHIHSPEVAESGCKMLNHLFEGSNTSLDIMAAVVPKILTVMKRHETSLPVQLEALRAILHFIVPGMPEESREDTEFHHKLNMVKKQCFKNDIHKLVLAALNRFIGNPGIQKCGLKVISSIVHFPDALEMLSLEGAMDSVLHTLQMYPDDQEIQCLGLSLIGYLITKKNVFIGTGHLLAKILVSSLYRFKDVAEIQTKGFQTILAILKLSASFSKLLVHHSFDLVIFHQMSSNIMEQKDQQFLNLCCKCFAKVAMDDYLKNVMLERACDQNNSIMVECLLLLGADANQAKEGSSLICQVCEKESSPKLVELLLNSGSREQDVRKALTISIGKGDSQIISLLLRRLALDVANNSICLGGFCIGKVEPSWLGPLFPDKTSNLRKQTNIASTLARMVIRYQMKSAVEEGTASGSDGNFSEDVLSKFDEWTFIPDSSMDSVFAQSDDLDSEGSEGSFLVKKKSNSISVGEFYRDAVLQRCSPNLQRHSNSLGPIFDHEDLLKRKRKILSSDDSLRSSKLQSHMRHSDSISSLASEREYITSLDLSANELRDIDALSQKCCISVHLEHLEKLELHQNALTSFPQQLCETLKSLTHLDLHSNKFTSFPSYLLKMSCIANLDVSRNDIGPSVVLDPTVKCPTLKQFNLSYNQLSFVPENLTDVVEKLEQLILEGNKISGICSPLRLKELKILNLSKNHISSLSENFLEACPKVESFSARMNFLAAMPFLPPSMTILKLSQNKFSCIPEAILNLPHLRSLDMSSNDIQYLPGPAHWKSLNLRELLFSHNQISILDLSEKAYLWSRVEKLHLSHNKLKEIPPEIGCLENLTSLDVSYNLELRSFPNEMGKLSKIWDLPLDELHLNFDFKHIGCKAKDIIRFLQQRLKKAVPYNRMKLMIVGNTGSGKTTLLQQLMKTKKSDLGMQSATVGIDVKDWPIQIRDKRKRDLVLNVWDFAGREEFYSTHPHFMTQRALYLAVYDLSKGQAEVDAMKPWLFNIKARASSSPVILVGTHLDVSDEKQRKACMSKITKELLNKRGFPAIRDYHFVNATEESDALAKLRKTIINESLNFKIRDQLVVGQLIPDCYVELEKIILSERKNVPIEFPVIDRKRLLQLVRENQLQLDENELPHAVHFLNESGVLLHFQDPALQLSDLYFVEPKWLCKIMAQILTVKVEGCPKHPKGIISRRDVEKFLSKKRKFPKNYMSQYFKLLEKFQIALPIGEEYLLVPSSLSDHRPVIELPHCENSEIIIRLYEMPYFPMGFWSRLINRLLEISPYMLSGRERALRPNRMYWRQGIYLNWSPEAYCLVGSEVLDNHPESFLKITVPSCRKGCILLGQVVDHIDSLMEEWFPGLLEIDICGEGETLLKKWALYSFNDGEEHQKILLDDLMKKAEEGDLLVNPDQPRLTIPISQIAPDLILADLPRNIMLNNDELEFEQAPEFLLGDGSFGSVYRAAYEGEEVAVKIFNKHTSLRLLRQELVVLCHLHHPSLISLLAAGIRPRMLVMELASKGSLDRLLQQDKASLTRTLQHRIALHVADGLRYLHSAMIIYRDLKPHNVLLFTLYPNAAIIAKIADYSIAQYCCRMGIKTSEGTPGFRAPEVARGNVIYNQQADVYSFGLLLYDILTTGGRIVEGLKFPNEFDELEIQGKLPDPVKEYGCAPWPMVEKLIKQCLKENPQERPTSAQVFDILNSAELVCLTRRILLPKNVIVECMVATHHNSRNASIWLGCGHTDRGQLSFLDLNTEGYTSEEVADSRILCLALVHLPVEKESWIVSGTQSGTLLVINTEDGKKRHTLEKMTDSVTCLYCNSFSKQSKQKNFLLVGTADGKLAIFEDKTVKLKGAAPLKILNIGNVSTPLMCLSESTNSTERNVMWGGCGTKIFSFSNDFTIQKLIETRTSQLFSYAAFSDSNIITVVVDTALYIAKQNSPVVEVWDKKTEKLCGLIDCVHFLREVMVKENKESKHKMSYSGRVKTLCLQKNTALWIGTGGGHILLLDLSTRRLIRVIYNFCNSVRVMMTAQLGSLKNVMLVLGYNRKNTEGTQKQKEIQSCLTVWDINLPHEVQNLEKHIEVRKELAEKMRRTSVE
row,Compound,Ki [nM]
1,"Cc1c(Nc2ncc(Cl)c(OC3CCOCC3)n2)cnn1C [Example 9, 5-Chloro-N-(1,5-dimethyl-1H-pyrazol-4-yl)-4-(tetrahydro-2H-pyran-4-yloxy)pyrimidin-2-amine]",39
2,"Cc1c(Nc2ncc(C(F)(F)F)c(N3CCCC3)n2)cnn1C [Example 13, N-(1,5-dimethyl-1H-pyrazol-4-yl)-4-(pyrrolidin-1-yl)-5-(trifluoromethyl) pyrimidin-2-amine]",12
3,"COc1nc(Nc2cn(C)nc2C)ncc1Cl [Example 15, 5-Chloro-N-(1,3-dimethyl-1H-pyrazol-4-yl)-4-methoxy-pyrimidin-2-amine]",14.4
4,"COCCn1cc(Nc2ncc(Cl)c(OC)n2)c(C)n1 [Example 19, 5-Chloro-4-methoxy-N-(1-(2-methoxyethyl)-3-methyl-1H-pyrazol-4-yl)pyrimidin-2-amine]",15
5,"COc1nc(Nc2cn(C(C)C)nc2C)ncc1Cl [Example 29, 5-Chloro-N-(1-isopropyl-3-methyl-1H-pyrazol-4-yl)-4-methoxy-pyrimidin-2-amine]",22
6,"CNc1nc(Nc2cn(C(C)C)nc2C)ncc1Cl [Example 31, 5-Chloro-N^2-(1-isopropyl-3-methyl-1H-pyrazol-4-yl)-N^4-methylpyrimidine-2,4-diamine]",12
7,"CNc1nc(Nc2cn(C3CCOCC3)nc2C)ncc1C(F)(F)F [Example 32, N^4-methyl-N^2-(3-methyl-1-(tetrahydro-2H-pyran-4-yl)-1H-pyrazol-4-yl)-5-(trifluoromethyl) pyrimidine-2,4-diamine]",24
8,"CNc1nc(Nc2ccnn2C)ncc1F [Example 35, 5-Fluoro-N^4-methyl-N^2-(2-methyl-2H-pyrazol-3-yl)-pyrimidine-2,4-diamine]",267
9,"COc1nc(Nc2cc(C3CC3)nn2C)ncc1Cl [Example 39, 5-Chloro-N-(3-cyclopropyl-1-methyl-1H-pyrazol-5-yl)-4-methoxy-pyrimidin-2-amine]",59
10,"CNc1nc(Nc2cc(C3CC3)nn2C)ncc1Cl [Example 45, 5-Chloro-N^2-(5-cyclopropyl-2-methyl-2H-pyrazol-3-yl)-N^4-methyl-pyrimidine-2,4-diamine]",13.4
11,"COc1nc(Nc2cn(S(C)(=O)=O)nc2C)ncc1Cl [Example 54, 5-chloro-4-methoxy-N-(3-methyl-1-(methylsulfonyl)-1H-pyrazol-4-yl)pyrimidin-2-amine]",7.8
12,"COc1nc(Nc2cnn(-c3ccccc3)c2C)ncc1Cl [Example 56, 5-chloro-4-methoxy-N-(5-methyl-1-phenyl-1H-pyrazol-4-yl)pyrimidin-2-amine]",27
13,"CNc1nc(Nc2ccn(C(C)C)n2)ncc1C(F)(F)F [Example 57, N^2-(1-isopropyl-1H-pyrazol-3-yl)-N4-methyl-5-(trifluoromethyl) pyrimidine-2,4-diamine]",2.5
14,"CNc1nc(Nc2cnn(CC(F)(F)F)c2C)ncc1C(F)(F)F [Example 58, N^4-methyl-N^2-(5-methyl-1-(2,2,2-trifluoroethyl)-1H-pyrazol-4-yl)-5-(trifluoromethyl) pyrimidine-2,4-diamine]",3.6
15,"COc1nc(Nc2cnn(-c3ccc(S(C)(=O)=O)cc3)c2C)ncc1Cl [Example 60, 5-chloro-4-methoxy-N-(5-methyl-1-(4-(methylsulfonyl)phenyl)-1H-pyrazol-4-yl)pyrimidin-2-amine]",15
16,"CCNc1nc(Nc2ccn(C)n2)ncc1C(F)(F)F [Example 61, N^4-ethyl-N^2-(1-methyl-1H-pyrazol-3-yl)-5-(trifluoromethyl) pyrimidine-2,4-diamine]",4.6
17,"Cc1c(Nc2ncc(Cl)c(OC3COC3)n2)cnn1C [Example 62, 5-chloro-N-(1,5-dimethyl-1H-pyrazol-4-yl)-4-(oxetan-3-yloxy)pyrimidin-2-amine]",39
18,"COc1nc(Nc2cn(C3CCOCC3)nc2C)ncc1Cl [Example 65, 5-chloro-4-methoxy-N-(3-methyl-1-(tetrahydro-2H-pyran-4-yl)-1H-pyrazol-4-yl)pyrimidin-2-amine]",2.9
19,"COc1nc(Nc2cn(-c3ccncc3C)nc2C)ncc1Cl [Example 69, 5-chloro-4-methoxy-N-(3-methyl-1-(3-methylpyridin-4-yl)-1H-pyrazol-4-yl)pyrimidin-2-amine]",55
20,"COc1nc(Nc2cnn(S(=O)(=O)C3CC3)c2C)ncc1Cl [Example 70, 5-chloro-N-(1-(cyclopropyl-sulfonyl)-5-methyl-1H-pyrazol-4-yl)-4-methoxy-pyrimidin-2-amine]",15
21,"COc1nc(Nc2cn(S(=O)(=O)C3CC3)nc2C)ncc1Cl [Example 71, 5-chloro-N-(1-(cyclopropyl-sulfonyl)-3-methyl-1H-pyrazol-4-yl)-4-methoxy-pyrimidin-2-amine]",20

# Continued by falling Ki, values first:
row,Ki [nM],Compound
1,112,"CNc1nc(Nc2ccnn2C(C)C)ncc1C(F)(F)F [Example 47, N^2-(1-isopropyl-1H-pyrazol-5-yl)-N^4-methyl-5-(trifluoromethyl) pyrimidine-2,4-diamine]"
2,96,"CNc1nc(Nc2c(C)nn(C)c2C)ncc1C(F)(F)F [Example 10, N^4-methyl-5-(trifluoromethyl)-N^2-(1,3,5-trimethyl-1H-pyrazol-4-yl)pyrimidinc-2,4-diamine]"
3,89,"COc1nc(Nc2cnn(C3CCN(C(=O)C4(C)CC4)CC3)c2C)ncc1Cl [Example 67, (4-(4-(5-chloro-4-methoxy-pyrimidin-2-ylamino)-5-methyl-1H-pyrazol-1-yl)piperidin-1-yl)(1-methylcyclo-propyl) methanone]"
4,70,"COc1nc(Nc2cc(C(C)C)nn2C)ncc1Cl [Example 41, 5-Chloro-N-(3-isopropyl-1-methyl-1H-pyrazol-5-yl)-4-methoxy-pyrimidin-2-amine]"
5,66,"COc1nc(Nc2cn(C3CCN(C(=O)C4(C)CC4)CC3)nc2C)ncc1Cl [Example 66, (4-(4-(5-chloro-4-methoxy-pyrimidin-2-ylamino)-3-methyl-1H-pyrazol-1-yl)piperidin-1-yl)(1-methylcyclo-propyl) methanone]"
6,58.6,"Cc1c(Nc2ncc(Cl)c(OCC(F)(F)F)n2)cnn1C [Example 64, 5-chloro-N-(1,5-dimethyl-1H-pyrazol-4-yl)-4-(2,2,2-trifluoroethoxy) pyrimidin-2-amine]"
7,33,"CC(C)n1cc(Nc2ncc(Cl)c(OC3CCOCC3)n2)cn1 [Example 11, 5-Chloro-N-(1-isopropyl-1H-pyrazol-4-yl)-4-(tetrahydro-2H-pyran-4-yloxy)pyrimidin-2-amine]"
8,27,COc1nc(Nc2cn(CC(C)(C)O)nc2C)ncc1Cl [Example 23]
9,24,"Cc1c(Nc2ncc(Cl)c(OCC(F)F)n2)cnn1C [Example 63, 5-chloro-4-(2,2-difluoroethoxy)-N-(1,5-dimethyl-1H-pyrazol-4-yl)pyrimidin-2-amine]"
10,22,"COc1nc(Nc2cn(C3COC3)nc2C)ncc1Cl [Example 18, 5-Chloro-4-methoxy-N-(3-methyl-1-(oxetan-3-yl)-1H-pyrazol-4-yl)pyrimidin-2-amine]"
11,20,"COc1nc(Nc2cnn(C)c2Cl)ncc1Cl [Example 21, 5-Chloro-N-(5-chloro-1-methyl-1H-pyrazol-4-yl)-4-methoxy-pyrimidin-2-amine]"
12,19,"COCCn1ncc(Nc2ncc(Cl)c(OC)n2)c1C [Example 20, 5-chloro-4-methoxy-N-(1-(2-methoxyethyl)-5-methyl-1H-pyrazol-4-yl)pyrimidin-2-amine]"
13,16,"CNc1nc(Nc2cc(C(C)C)nn2C)ncc1Cl [Example 42, 5-Chloro-N^2-(5-isopropyl-2-methyl-2H-pyrazol-3-yl)-N^4-methyl-pyrimidine-2,4-diamine]"
14,15,"CNc1nc(Nc2cnn(CCN3CCOCC3)c2)ncc1C(F)(F)F [Example 3, N^4-methyl-N^2-(1-(2-morpholinoethyl)-1H-pyrazol-4-yl)-5-(trifluoromethyl) pyrimidine-2,4-diamine]"
15,13,"CCn1cc(Nc2ncc(Cl)c(OC)n2)c(C)n1 [Example 26, 5-Chloro-N-(1-ethyl-3-methyl-1H-pyrazol-4-yl)-4-methoxy-pyrimidin-2-amine]"
16,12,"CNc1nc(Nc2cc(C(C)C)nn2C)ncc1C(F)(F)F [Example 38, N^2-(3-isopropyl-1-methyl-1H-pyrazol-5-yl)-N^4-methyl-5-(trifluoromethyl) pyrimidine-2,4-diamine]"
17,9.1,"COc1nc(Nc2cnn(C)c2C)ncc1Cl [Example 12, 5-Chloro-N-(1,5-dimethyl-1H-pyrazol-4-yl)-4-methoxy-pyrimidin-2-amine]"
18,8.8,"CNc1nc(Nc2cn(C3COC3)nc2C)ncc1Cl [Example 27, 5-Chloro-N^4-methyl-N^2-(3-methyl-1-(oxetan-3-yl)-1H-pyrazol-4-yl)pyrimidine-2,4-diamine]"
19,2.4,"COc1nc(Nc2cn(-c3ccc(C#N)cc3)nc2C)ncc1Cl [Example 68, 4-(4-(5-chloro-4-methoxy-pyrimidin-2-ylamino)-3-methyl-1H-pyrazol-1-yl)benzonitrile]"
